# Experimental data as given in patent US20230049952A1, “METHODS AND COMPOUNDS FOR RESTORING MUTANT P53 FUNCTION” (PMV Pharmaceuticals, Inc., priority 2020, published 2023).
# Tested on: NF-κB signaling pathway in MT373 tumors
# Assay: MT373 syngeneic sarcoma model: mouse NF-κB signaling pathway profiling panel
# Format: in vivo
# Details: for Ccl2 mRNA downregulation / Csf2 mRNA downregulation / Egfr mRNA downregulation / Fas1 mRNA downregulation / Ifnγ mRNA downregulation / Il1α mRNA downregulation / Il1β mRNA downregulation: 150 mg/kg BID×1
compound,measurement,setting,value
"CCn1c(C#CCNc2ccccc2)cc2cc(CNC3CCN(C)CC3)ccc21 [Compound 1, 1-Anilino-3-{1-ethyl-5-[(1-methyl-4-piperidylamino)methyl]-1H-indol-2-yl}-2-propyne]",Ccl5 fold increase over or percent reduction vs vehicle control,"150 mg/kg BIDx1, […]",2.85 ± 0.20 fold or %
same,Cd27 fold increase over or percent reduction vs vehicle control,"150 mg/kg BIDx1, […]",1.48 ± 0.16 fold or %
same,Cd40 fold increase over or percent reduction vs vehicle control,"150 mg/kg BIDx1, […]",1.78 ± 0.80 fold or %
same,Cflar fold increase over or percent reduction vs vehicle control,"150 mg/kg BIDx1, […]",6.22 ± 11.55 fold or %
same,Chuk fold increase over or percent reduction vs vehicle control,"150 mg/kg BIDx1, […]",1.16 ± 0.33 fold or %
same,Crebbp fold increase over or percent reduction vs vehicle control,"150 mg/kg BIDx1, […]",16.61 ± 5.43 fold or %
same,Csf1 fold increase over or percent reduction vs vehicle control,"150 mg/kg BIDx1, […]",1.10 ± 0.10 fold or %
same,Csf2 fold increase over or percent reduction vs vehicle control,"150 mg/kg BIDx1, […]",2.00 ± 1.31 fold or %
same,Csf3 fold increase over or percent reduction vs vehicle control,"150 mg/kg BIDx1, […]",52.98 ± 22.53 fold or %
same,Egfr fold increase over or percent reduction vs vehicle control,"150 mg/kg BIDx1, […]",41.90 ± 8.16 fold or %
same,Egr1 fold increase over or percent reduction vs vehicle control,"150 mg/kg BIDx1, […]",54.35 ± 3.91 fold or %
same,Eif2ak2 fold increase over or percent reduction vs vehicle control,"150 mg/kg BIDx1, […]",18.72 ± 7.21 fold or %
same,Elk1 fold increase over or percent reduction vs vehicle control,"150 mg/kg BIDx1, […]",7.14 ± 8.40 fold or %
same,F2r fold increase over or percent reduction vs vehicle control,"150 mg/kg BIDx1, […]",1.01 ± 0.12 fold or %
same,Fadd fold increase over or percent reduction vs vehicle control,"150 mg/kg BIDx1, […]",5.68 ± 5.62 fold or %
same,Fasl fold increase over or percent reduction vs vehicle control,"150 mg/kg BIDx1, […]",3.17 ± 0.74 fold or %
same,Fos fold increase over or percent reduction vs vehicle control,"150 mg/kg BIDx1, […]",44.44 ± 21.93 fold or %
same,Hmox1 fold increase over or percent reduction vs vehicle control,"150 mg/kg BIDx1, […]",40.88 ± 33.56 fold or %
same,Icam1 fold increase over or percent reduction vs vehicle control,"150 mg/kg BIDx1, […]",1.41 ± 0.25 fold or %
same,Ifng fold increase over or percent reduction vs vehicle control,"150 mg/kg BIDx1, […]",3.22 ± 0.99 fold or %
same,Ikbkb fold increase over or percent reduction vs vehicle control,"150 mg/kg BIDx1, […]",6.97 ± 8.47 fold or %
same,Ikbke fold increase over or percent reduction vs vehicle control,"150 mg/kg BIDx1, […]",0.36 ± 10.26 fold or %
same,Ikbkg fold increase over or percent reduction vs vehicle control,"150 mg/kg BIDx1, […]",9.50 ± 15.53 fold or %
same,Il1a fold increase over or percent reduction vs vehicle control,"150 mg/kg BIDx1, […]",1.02 ± 0.18 fold or %
same,Il1b fold increase over or percent reduction vs vehicle control,"150 mg/kg BIDx1, […]",1.39 ± 0.34 fold or %
same,Il1r1 fold increase over or percent reduction vs vehicle control,"150 mg/kg BIDx1, […]",28.14 ± 8.59 fold or %
same,Il10 fold increase over or percent reduction vs vehicle control,"150 mg/kg BIDx1, […]",34.39 ± 10.47 fold or %
same,Irak1 fold increase over or percent reduction vs vehicle control,"150 mg/kg BIDx1, […]",5.30 ± 10.81 fold or %
same,Irak2 fold increase over or percent reduction vs vehicle control,"150 mg/kg BIDx1, […]",1.05 ± 0.12 fold or %
same,Irf1 fold increase over or percent reduction vs vehicle control,"150 mg/kg BIDx1, […]",1.11 ± 0.14 fold or %
same,Jun fold increase over or percent reduction vs vehicle control,"150 mg/kg BIDx1, […]",26.73 ± 6.02 fold or %
same,Lta fold increase over or percent reduction vs vehicle control,"150 mg/kg BIDx1, […]",1.87 ± 0.82 fold or %
same,Ltbr fold increase over or percent reduction vs vehicle control,"150 mg/kg BIDx1, […]",1.13 ± 0.10 fold or %
same,Map3k1 fold increase over or percent reduction vs vehicle control,"150 mg/kg BIDx1, […]",16.75 ± 8.45 fold or %
same,Mapk3 fold increase over or percent reduction vs vehicle control,"150 mg/kg BIDx1, […]",19.93 ± 6.52 fold or %
same,Myd88 fold increase over or percent reduction vs vehicle control,"150 mg/kg BIDx1, […]",9.52 ± 8.80 fold or %
same,Nfkb1 fold increase over or percent reduction vs vehicle control,"150 mg/kg BIDx1, […]",5.72 ± 2.88 fold or %
same,Nfkb2 fold increase over or percent reduction vs vehicle control,"150 mg/kg BIDx1, […]",1.01 ± 0.10 fold or %
same,Nfkbia fold increase over or percent reduction vs vehicle control,"150 mg/kg BIDx1, […]",8.21 ± 16.85 fold or %
same,Nod1 fold increase over or percent reduction vs vehicle control,"150 mg/kg BIDx1, […]",0.36 ± 14.65 fold or %
same,Raf1 fold increase over or percent reduction vs vehicle control,"150 mg/kg BIDx1, […]",7.66 ± 4.64 fold or %
same,Rel fold increase over or percent reduction vs vehicle control,"150 mg/kg BIDx1, […]",4.74 ± 2.26 fold or %
same,Rela fold increase over or percent reduction vs vehicle control,"150 mg/kg BIDx1, […]",20.75 ± 9.37 fold or %
same,Relb fold increase over or percent reduction vs vehicle control,"150 mg/kg BIDx1, […]",14.05 ± 6.91 fold or %
same,Ripk1 fold increase over or percent reduction vs vehicle control,"150 mg/kg BIDx1, […]",2.92 ± 15.10 fold or %
same,Ripk2 fold increase over or percent reduction vs vehicle control,"150 mg/kg BIDx1, […]",1.11 ± 0.29 fold or %
same,Slc20a1 fold increase over or percent reduction vs vehicle control,"150 mg/kg BIDx1, […]",20.53 ± 3.61 fold or %
same,Smad3 fold increase over or percent reduction vs vehicle control,"150 mg/kg BIDx1, […]",0.01 ± 11.30 fold or %
same,Stat1 fold increase over or percent reduction vs vehicle control,"150 mg/kg BIDx1, […]",1.20 ± 0.33 fold or %
same,Tbk1 fold increase over or percent reduction vs vehicle control,"150 mg/kg BIDx1, […]",1.03 ± 0.18 fold or %
same,Tlr1 fold increase over or percent reduction vs vehicle control,"150 mg/kg BIDx1, […]",1.33 ± 0.37 fold or %
same,Tlr2 fold increase over or percent reduction vs vehicle control,"150 mg/kg BIDx1, […]",1.05 ± 0.08 fold or %
same,Tlr3 fold increase over or percent reduction vs vehicle control,"150 mg/kg BIDx1, […]",1.02 ± 0.15 fold or %
same,Tlr4 fold increase over or percent reduction vs vehicle control,"150 mg/kg BIDx1, […]",1.04 ± 0.09 fold or %
same,Tlr6 fold increase over or percent reduction vs vehicle control,"150 mg/kg BIDx1, […]",0.43 ± 6.189 fold or %
same,Tlr9 fold increase over or percent reduction vs vehicle control,"150 mg/kg BIDx1, […]",1.29 ± 0.19 fold or %
same,Tnf fold increase over or percent reduction vs vehicle control,"150 mg/kg BIDx1, […]",1.12 ± 0.27 fold or %
same,Tnfaip3 fold increase over or percent reduction vs vehicle control,"150 mg/kg BIDx1, […]",11.08 ± 10.07 fold or %
same,Tnfrsf1a fold increase over or percent reduction vs vehicle control,"150 mg/kg BIDx1, […]",17.69 ± 12.43 fold or %
same,Tnfrsf1b fold increase over or percent reduction vs vehicle control,"150 mg/kg BIDx1, […]",1.08 ± 0.19 fold or %
same,Tnfrsf10b fold increase over or percent reduction vs vehicle control,"150 mg/kg BIDx1, […]",1.19 ± 15.33 fold or %
same,Tnfsf10 fold increase over or percent reduction vs vehicle control,"150 mg/kg BIDx1, […]",1.18 ± 0.41 fold or %
same,Tnfsf14 fold increase over or percent reduction vs vehicle control,"150 mg/kg BIDx1, […]",1.09 ± 0.34 fold or %
same,Tollip fold increase over or percent reduction vs vehicle control,"150 mg/kg BIDx1, […]",13.73 ± 7.04 fold or %
same,Tradd fold increase over or percent reduction vs vehicle control,"150 mg/kg BIDx1, […]",1.02 ± 0.22 fold or %
same,Traf2 fold increase over or percent reduction vs vehicle control,"150 mg/kg BIDx1, […]",1.01 ± 0.11 fold or %
same,Traf3 fold increase over or percent reduction vs vehicle control,"150 mg/kg BIDx1, […]",17.66 ± 4.06 fold or %
same,Traf5 fold increase over or percent reduction vs vehicle control,"150 mg/kg BIDx1, […]",1.10 ± 0.12 fold or %
same,Traf6 fold increase over or percent reduction vs vehicle control,"150 mg/kg BIDx1, […]",12.35 ± 5.34 fold or %
same,Zap70 fold increase over or percent reduction vs vehicle control,"150 mg/kg BIDx1, […]",2.40 ± 0.39 fold or %
same,Ccl2 mRNA downregulation,24 h,57.69%
same,Csf2 mRNA downregulation,24 h,61.29%
same,Egfr mRNA downregulation,24 h,28.45%
same,Fas1 mRNA downregulation,24 h,31.85%
same,Ifnγ mRNA downregulation,24 h,35.82%
same,Il1α mRNA downregulation,24 h,13.50%
same,Il1β mRNA downregulation,24 h,63.25%
same,Ccl2 mRNA downregulation,48 h,67.28%
same,Csf2 mRNA downregulation,48 h,62.24%
same,Egfr mRNA downregulation,48 h,24.42%
same,Ifnγ mRNA downregulation,48 h,43.46%
same,Il1α mRNA downregulation,48 h,28.88%
same,Il1β mRNA downregulation,48 h,18.73%
same,Ccl2 mRNA downregulation,72 h,52.53%
same,Fas1 mRNA downregulation,72 h,42.85%
same,Ifnγ mRNA downregulation,72 h,22.04%
same,Il1α mRNA downregulation,72 h,63.60%
same,Il1β mRNA downregulation,72 h,84.09%
same,Egfr mRNA downregulation,[…],41.90%
